Tests used:
tubulin = experiment: Inhibition of tubulin assembly
[1] = system: A549 human lung cancer cell line; experiment: Cytotoxic activity against A549 lung cancer cell line

Row | SMILES | Activity as tubulin polymerization/assembly inhibitor (in words) (tubulin) | Cytotoxic activity against A549 cell line (in words) [1]
1 | COC(=O)Nc1nc2ccc(/C=C\c3cc(OC)c(OC)c(OC)c3)cc2[nH]1 [Compound 1] | excellent activities | 
2 | COC(=O)Nc1nc2ccc(C(=O)c3ccc(OC)cc3O)cc2[nH]1 [Compound 2] | excellent activities | no activity
3 | COC(=O)Nc1nc2ccc(C(=O)c3ccc(O)cc3O)cc2[nH]1 [Compound 3] | inactive | no activity
4 | COC(=O)Nc1nc2ccc(C(=O)c3sccc3O)cc2[nH]1 [Compound 4] | excellent activities | 

Source: paper PMC4416488 (Bioorganic & medicinal chemistry letters, 2015)
